Earlier results in patent publication US8377976B2, “N-hydroxyamidinoheterocycles as modulators of indoleamine 2,3-dioxygenase” (Incyte Corporation, priority 2006, dated 2013).

How the values were obtained:
[1] = test system: peripheral blood lymphocytes (PBLs); settings: HeLa cells co-cultured with PBLs
allogeneic concepti = settings: pregnant mice exposed to 1MT
tumor growth = settings: mice
[2] = test system: CD123-positive dendritic cells; settings: mature and immature CD123-positive dendritic cells
P815 tumor = settings: pre-immunized immune-competent mice
LLC tumors = settings: C57B1/6 mice, versus placebo

In the case of `Cn1cc(C[C@H](N)C(=O)O)c2ccccc21` [Example 1-MT, 1-methyl-tryptophan], the “reduction in PBL proliferation upon treatment with interleukin-2 (IL2)” value [1] is given as “reversed”, the rejection of concepti (allogeneic concepti) is given as “rapid, T cell-induced rejection of all allogeneic concepti” and the “tumor growth in combination with chemotherapeutic agents” value (tumor growth) is given as “synergize with chemotherapeutic agents to reduce tumor growth”. The “IDO suppressive activity on T-cell activity” value [2] was “blocked”, the growth of tumors (P815 tumor) was “inhibited” and the formation of tumors (LLC tumors) was “markedly delayed”.
